{
  "source": "paper PMC4711283",
  "about": "“Immobilization of halophilic Aspergillus awamori EM66 exochitinase on grafted k-carrageenan-alginate beads” (3 Biotech, 2016)",
  "system": "T1, A. awamori EM66 exochitinase",
  "T1 construct": "native secreted enzyme from culture supernatant of honey isolate, partially purified by ethanol fractionation, free (not immobilised)",
  "experiment": "p-nitrophenol release at […] nm, Lineweaver-Burk plot",
  "format": "biochemical, Aspergillus awamori",
  "conditions": "free enzyme, partially purified; acetate buffer pH 5.0; 30 °C; apparent Km",
  "data": [
    {"smiles": "CC(=O)N[C@H]1[C@H](Oc2ccc([N+](=O)[O-])cc2)O[C@H](CO)[C@@H](O)[C@@H]1O", "note": "[PNP-β-GlcNAc, p-nitrophenyl-β-D-N-acetyl glucoseaminide]", "values": [
      {"measurement": "Km", "value": 0.33, "unit": "mg/mL"}
    ]}
  ]
}
